Measured values: patent US8044211B2 (Chroma Therapeutics Ltd., priority 2006, dated 2011)
Where a name gives a salt, the structure may show the parent alone. Read-outs that look alike come from different tables or passages of the source.

How the values were obtained:
p38 MAP Kinase a = target: T1, p38 MAP Kinase a (Homo sapiens, UniProt Q16539); test: p38 MAP Kinase activity, radiometric filter-binding assay (Upstate); assay type: biochemical; conditions: IC50 range; ATP at or close to Km; read-out: Inhibitor activity versus p38 MAPKa
T1 construct: purchased Upstate (Dundee UK)
T1 sequence (Q16539 whole entry): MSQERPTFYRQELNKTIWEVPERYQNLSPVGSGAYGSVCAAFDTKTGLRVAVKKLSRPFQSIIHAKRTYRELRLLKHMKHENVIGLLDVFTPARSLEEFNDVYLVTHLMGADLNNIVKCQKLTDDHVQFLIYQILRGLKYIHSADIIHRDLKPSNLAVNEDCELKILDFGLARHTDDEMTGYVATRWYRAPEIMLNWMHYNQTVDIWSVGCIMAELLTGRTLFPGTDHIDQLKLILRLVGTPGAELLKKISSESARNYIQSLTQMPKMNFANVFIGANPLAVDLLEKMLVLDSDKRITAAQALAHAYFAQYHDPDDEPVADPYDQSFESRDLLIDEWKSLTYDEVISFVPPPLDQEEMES
Procedure: The ability of compounds to inhibit p38 MAP a Kinase activity was measured in an assay performed by Upstate (Dundee UK). In a final reaction volume of 25 μL, p38 MAP Kinase a (5-10 mU) is incubated with 25 mM Tris pH 7.5, 0.002 mMEGTA, 0.33 mg/mL myelin basic protein, 10 mM MgAcetate and [g-33P-ATP] (specific activity approx. 500 cpm/pmol, concentration as required). The reaction is initiated by the addition of the MgATP mix. After incubation for 40 minutes at room temperature, the reaction is stopped by the addition of 5 μL of a 3% phosphoric acid solution. 10 μL of the reaction is then spotted onto a P30 filtermat and washed three times for 5 minutes in 75 mM phosphoric acid and once in methanol prior to drying and scintillation counting.
Duplicate data points are generated from a ⅓ log dilution series of a stock solution in DMSO. Nine dilutions steps are made from a top concentration of 10 μM, and a ‘no compound’ blank is included. The standard radiometric filter-binding assay is performed at an ATP concentration at, or close to, the Km. Data from scintillation counts are collected and subjected to free-fit analysis by Prism software. From the curve generated, the concentration giving 50% inhibition is determined and reported.

THP-1 TNFα release = test: LPS-stimulation of THP-1 cells, TNF-α by ELISA; assay type: cell-based; conditions: IC50 range, LPS 1 μg/ml, 6 hrs, read-out: Inhibitor activity versus THP-1 TNFα release
Procedure: THP-1 cells were plated in 100 μl at a density of 4×10^4 cells/well in V-bottomed 96 well tissue culture treated plates and incubated at 37° C. in 5% CO2 for 16 hrs. 2 hrs after the addition of the inhibitor in […], of tissue culture media, the cells were stimulated with LPS (E. coli strain 005:B5, Sigma) at a final concentration of 1 μg/ml and incubated at 37° C. in 5% CO2 for 6 hrs. TNF-α levels were measured from cell-free supernatants by sandwich ELISA (R&D Systems #QTA00B).

Compound	IC50 (p38 MAP Kinase a) [nM]	IC50 (THP-1 TNFα release; Homo sapiens, THP-1) [nM]	IC50 (THP-1 TNFα release) [nM]
CC(C)C[C@H](NCCCCCOc1cc(F)c(-n2c(N)c(C(=O)c3ccc(F)cc3)ccc2=O)c(F)c1)C(=O)OC1CCCC1 [Example 55, Cyclopentyl N-(5-{4-[6-amino-5-(4-fluorobenzoyl)-2-oxopyridin-1(2H)-yl]-3,5-difluorophenoxy}pentyl)-L-leucinate]	100 to 1000	< 100	–
Cc1ccc(C(=O)c2ccc(=O)n(-c3ccc(CCN[C@@H](CC(C)C)C(=O)OC4CCCC4)cc3)c2N)cc1 [Example 63, Cyclopentyl N-[2-(4-{6-amino-5-[(4-methylphenyl)carbonyl]-2-oxopyridin-1(2H)-yl}phenyl)ethyl]-L-leucinate]	> 1000	< 100	–
Nc1c(C(=O)c2ccc(F)cc2F)ccc(=O)n1-c1ccc(CN[C@@H](Cc2ccccc2)C(=O)OC2CCCC2)cc1 [Example 8, Cyclopentyl(S)-2-{4-[6-Amino-5-(2,4-difluorobenzoyl)-2-oxo-2H-pyridin-1-yl]benzylamino}-3-phenylpropionate]	< 100	100 to 1000	–
CC(C)C[C@H](NCCc1ccc(-n2c(N)c(C(=O)c3ccc(Cl)cc3)ccc2=O)cc1)C(=O)OC1CCCC1 [Example 65, Cyclopentyl N-[2-(4-{6-amino-5-[(4-chlorophenyl)carbonyl]-2-oxopyridin-1(2H)-yl}phenyl)ethyl]-L-leucinate]	100 to 1000	< 100	–
CC(C)C[C@H](NC(=O)COc1ccc(-n2c(N)c(C(=O)c3ccc(F)cc3)ccc2=O)cc1)C(=O)OC1CCCC1 [Example 56, Cyclopentyl N-({4-[6-amino-5-(4-fluorobenzoyl)-2-oxopyridin-1(2H)-yl]phenoxy}acetyl)-L-leucinate]	100 to 1000	> 1000	–
Nc1c(C(=O)c2ccc(F)cc2F)ccc(=O)n1-c1c(F)cc(OCCCN[C@@H](C(=O)OC2CC3CCC2C3)c2ccccc2)cc1F (stereo partly drawn) [Example 44, Bicyclo[2.2.1]hept-2-yl (2R)-[(3-{4-[6-amino-5-(2,4-difluorobenzoyl)-2-oxopyridin-1(2H)-yl]-3,5-difluorophenoxy}propyl)amino](phenyl)acetate]	100 to 1000	< 100	–
Nc1c(C(=O)c2ccc(F)cc2)ccc(=O)n1-c1c(F)cc(OCCCN[C@H](C(=O)OC2CCCC2)c2ccccc2)cc1F [Example 13, Cyclopentyl(S)-(3-{4-[6-Amino-5-(4-fluorobenzoyl)-2-oxo-2H-pyridin-1-yl]-3,5-difluorophenoxy}propylamino)phenylacetate]	< 100	< 100	–
CC(C)C[C@@H](NCCCOc1cc(F)c(-n2c(N)c(C(=O)c3ccc(F)cc3F)ccc2=O)c(F)c1)C(=O)OC(C)(C)C [Example 51, tert-Butyl N-(3-{4-[6-amino-5-(2,4-difluorobenzoyl)-2-oxopyridin-1(2H)-yl]-3,5-difluorophenoxy}propyl)-D-leucinate]	< 100	< 100	–
Nc1c(C(=O)c2ccc(F)cc2F)ccc(=O)n1-c1ccc(OCCCN[C@H](C(=O)OC2CCCC2)c2ccccc2)cc1 [Example 28, Cyclopentyl(S)-(3-{4-[6-Amino-5-(2,4-difluorobenzoyl)-2-oxo-2H-pyridin-1-yl]1-phenoxy}propylamino)phenyl acetate]	< 100	< 100	–
Cc1cc(C(=O)c2ccc(=O)n(-c3c(F)cc(OCCCN[C@@H](Cc4ccccc4)C(=O)OC4CCCC4)cc3F)c2N)ccc1F [Example 18, Cyclopentyl(S)-2-(3-{4-[6-Amino-5-(4-fluoro-3-methylbenzoyl)-2-oxo-2H-pyridin-1-yl]-3,5-difluorophenoxy}propylamino)-3-phenylpropionate]	< 100	< 100	–
O=C(c1ccc(F)cc1)c1ccc(=O)[nH]c1Nc1c(F)cc(CN[C@@H](Cc2ccccc2)C(=O)OC2CCCC2)cc1F [Example 71, Cyclopentyl(S)-2-[3,5-Difluoro-4-[3-(4-fluorobenzoyl)-6-oxo-1,6-dihydropyridin-2-ylamino]benzylamino]-3-phenylpropionate]	< 100	> 1000	–
CC(C)C[C@H](NCCCOc1ccc(-n2c(N)c(C(=O)c3ccc(F)cc3F)ccc2=O)cc1)C(=O)OC(C)(C)C [Example 39, tert-Butyl(S)-2-(3-{4-[6-Amino-5-(2,4-difluorobenzoyl)-2-oxo-2H-pyridin-1-yl]phenoxy}propylamino)-4-methyl pentanoate]	< 100	100 to 1000	–
Nc1c(C(=O)c2ccc(F)cc2)ccc(=O)n1-c1c(F)cc(OC2CCC(N[C@@H](Cc3ccccc3)C(=O)OC3CCCC3)CC2)cc1F (stereo partly shown) [Example 31, trifluoroacetate]	< 100	< 100	–
CC(C)C[C@H](NCCCOc1ccc(-n2c(N)c(C(=O)c3ccc(F)cc3)ccc2=O)c(F)c1)C(=O)OC1CCCC1 [Example 66, Cyclopentyl N-[3-(4-{6-amino-5-[(4-fluorophenyl)carbonyl]-2-oxopyridin-1(2H)-yl}-3-fluorophenoxy)propyl]-L-leucinate]	100 to 1000	100 to 1000	–
tert-Butyl(S)-(3-{4-[6-Amino-5-(4-difluoro benzoyl)-2-oxo-2H-pyridin-1-yl]-3,5-difluorophenoxy}propylamino)phenyl acetate [Example 45]	< 100	–	< 100
CC(C)(C)OC(=O)[C@@H](NCCc1ccc(-n2c(N)c(C(=O)c3ccc(F)cc3)ccc2=O)cc1)c1ccccc1 [Example 62, tert-Butyl (2S)-{[2-(4-{6-amino-5-[(4-fluorophenyl)carbonyl]-2-oxopyridin-1(2H)-yl}phenyl)ethyl]amino}(phenyl)ethanoate]	100 to 1000	100 to 1000	–
CC(C)C[C@H](NCCCOc1ccc(-n2c(N)c(C(=O)c3ccc(F)cc3F)ccc2=O)cc1)C(=O)OC1CCCC1 [Example 30, Cyclopentyl(S)-2-(3-{4-[6-Amino-5-(2,4-difluorobenzoyl)-2-oxo-2H-pyridin-1-yl]phenoxy}propylamino)-4-methyl pentanoate]	< 100	< 100	–
Nc1c(C(=O)c2ccc(F)cc2F)ccc(=O)n1-c1ccc(CN[C@H](C(=O)OC2CCCC2)c2ccccc2)cc1 [Example 7, Cyclopentyl(S)-{4-[6-Amino-5-(2,4-difluorobenzoyl)-2-oxo-2H-pyridin-1-yl]benzylamino}phenylacetate]	< 100	> 1000	–
Nc1c(C(=O)c2ccc(F)cc2)ccc(=O)n1-c1ccc(CN[C@H](C(=O)OC2CCCC2)c2ccccc2)cc1 [Example 1, Cyclopentyl(S)-{4-[6-Amino-5-(4-fluorobenzoyl)-2-oxo-2H-pyridin-1-yl]benzylamino}phenylacetate]	100 to 1000	> 1000	–
Cc1cc(C(=O)c2ccc(=O)n(-c3ccc(CN[C@@H](CC(C)C)C(=O)OC4CCCC4)cc3)c2N)ccc1F [Example 6, Cyclopentyl(S)-2-{4-[6-Amino-5-(3-Methyl-4-fluorobenzoyl)-2-oxo-2H-pyridin-1-yl]benzylamino}-4-methylpentanoate]	100 to 1000	> 1000	–
Nc1c(C(=O)c2ccc(F)cc2)ccc(=O)n1C1CCC(N[C@@H](Cc2ccccc2)C(=O)OC2CCCC2)CC1 (single isomer, unassigned) [Example 34]	100 to 1000	> 1000	–
Nc1c(C(=O)c2ccc(F)cc2)ccc(=O)n1C1CCC(N[C@@H](Cc2ccccc2)C(=O)OC2CCCC2)CC1 (single isomer, unassigned) [Example 35]	100 to 1000	–	> 1000
CC(C)C[C@H](NCCc1ccc(-n2c(N)c(C(=O)c3ccc(F)cc3F)ccc2=O)cc1)C(=O)OC(C)(C)C [Example 60, tert-Butyl N-[2-(4-{6-amino-5-[(2,4-difluorophenyl)carbonyl]-2-oxopyridin-1(2H)-yl}phenyl)ethyl]-L-leucinate]	100 to 1000	< 100	–
CCOC(=O)[C@H](CC(C)C)NCCCOc1cc(F)c(-n2c(N)c(C(=O)c3ccc(F)cc3)ccc2=O)c(F)c1 [Example 16, Ethyl N-(3-{4-[6-amino-5-(4-fluorobenzoyl)-2-oxopyridin-1(2H)-yl]-3,5-difluorophenoxy}propyl)-L-leucinate]	< 100	< 100	–
Cc1cc(C(=O)c2ccc(=O)n(-c3ccc(OCCCN[C@H](C(=O)OC4CCCC4)c4ccccc4)cc3)c2N)ccc1F [Example 26]	< 100	100 to 1000	–
CC(C)C[C@H](NC1CCC(Oc2cc(F)c(-n3c(N)c(C(=O)c4ccc(F)cc4)ccc3=O)c(F)c2)CC1)C(=O)OC1CCCC1 (stereo partly drawn) [Example 33, Cyclopentyl(S)-2-(4-{4-[6-Amino-5-(4-fluorobenzoyl)-2-oxo-2H-pyridin-1-yl]-3,5-difluorophenoxy}cyclohexylamino)-4-methylpentanoate]	< 100	< 100	–
